{
  "source": "paper PMC2610245",
  "about": "(Drug metabolism and disposition: the biological fate of …, 2008)",
  "key": {"[1]": {"conditions": "ref Kumar et al., 2002; Mano et al., 2007; cited from earlier work"}, "P450 2C9 [2]": {"target": "T1, P450 2C9 (Homo sapiens, UniProt P11712)", "T1 sequence (P11712 whole entry)": "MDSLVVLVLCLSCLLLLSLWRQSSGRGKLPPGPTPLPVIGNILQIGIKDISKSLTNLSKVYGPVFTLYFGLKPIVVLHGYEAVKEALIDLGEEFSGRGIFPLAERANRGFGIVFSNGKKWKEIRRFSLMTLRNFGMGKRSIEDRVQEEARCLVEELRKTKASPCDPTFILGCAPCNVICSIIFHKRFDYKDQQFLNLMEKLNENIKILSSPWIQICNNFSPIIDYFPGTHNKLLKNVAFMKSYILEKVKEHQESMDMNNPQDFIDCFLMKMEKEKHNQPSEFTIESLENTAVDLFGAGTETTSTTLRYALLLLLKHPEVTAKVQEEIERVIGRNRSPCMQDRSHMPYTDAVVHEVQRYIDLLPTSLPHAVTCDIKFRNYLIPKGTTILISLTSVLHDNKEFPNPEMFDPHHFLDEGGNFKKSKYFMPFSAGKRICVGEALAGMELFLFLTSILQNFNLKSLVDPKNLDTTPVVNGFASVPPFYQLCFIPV", "experiment": "in vitro", "conditions": "recombinant enzyme, pH 7.4, in vitro half-life (t1/2)"}, "P450 2C9 [3]": {"target": "T1, P450 2C9", "experiment": "P450 2C9 inactivation assay", "conditions": "Hill equation"}, "P450 2C9 [4]": {"target": "T1, P450 2C9", "experiment": "Metabolic stability by substrate depletion", "conditions": "1 μM substrate, 0.04 μM P450 2C9, NADPH 2 mM, 37°C"}, "P450 2C9 Baculosomes": {"target": "P450 2C9 Baculosomes (Homo sapiens, UniProt P11712)", "sequence (P11712 whole entry)": "as above", "experiment": "Partition ratio by titration method", "conditions": "30 min pre-incubation, (S)-flurbiprofen as probe substrate"}, "P450 2C9 [5]": {"tested_on": "P450 2C9", "conditions": "in humans; ref Obach et al., 2007; cited from earlier work"}},
  "data": [
    {"smiles": "C[C@H](C(=O)O)c1ccc(-c2ccccc2)c(F)c1", "note": "[(S)-flurbiprofen]", "values": [
      {"measurement": "cleared by direct glucuronidation of the carboxylate functional groups", "setting": "[1]", "result": "roughly 50%"}
    ]},
    {"smiles": "O=C(O)COc1ccc(C(=O)c2cccs2)c(Cl)c1Cl", "note": "[Tienilic Acid, Tienilic acid]", "values": [
      {"measurement": "half-life at 1 μM", "setting": "P450 2C9 [2]", "result": 5, "unit": "min"}
    ]},
    {"smiles": "C[C@H](C(=O)O)c1ccc(C(=O)c2cccs2)cc1", "note": "[(S)-suprofen]", "values": [
      {"measurement": "half-life at 1 μM", "setting": "P450 2C9 [2]", "result": "35 to 38", "unit": "min"}
    ]},
    {"smiles": "CC(C(=O)O)c1ccc(C(=O)c2cccs2)cc1", "note": "(racemic) [(±)-Suprofen, (±)-suprofen]", "values": [
      {"measurement": "n (Hill coefficient)", "setting": "P450 2C9 [3]; probe substrate (S)-flurbiprofen", "result": 1.4},
      {"measurement": "n (Hill coefficient)", "setting": "P450 2C9 [3]; probe substrate diclofenac", "result": 1.3},
      {"measurement": "in vitro half-life (t1/2)", "setting": "P450 2C9 [4]", "result": 50, "unit": "min"},
      {"measurement": "partition ratio", "setting": "P450 2C9 Baculosomes", "result": 98},
      {"measurement": "turnover number (partition ratio + 1)", "setting": "P450 2C9 Baculosomes", "result": 99}
    ]},
    {"smiles": "C[C@@H](C(=O)O)c1ccc(C(=O)c2cccs2)cc1", "note": "[(R)-suprofen]", "values": [
      {"measurement": "half-life at 1 μM", "setting": "P450 2C9 [2]", "result": "35 to 38", "unit": "min"}
    ]},
    {"smiles": "O=C(O)Cc1ccccc1Nc1c(Cl)cccc1Cl", "note": "[diclofenac]", "values": [
      {"measurement": "cleared by direct glucuronidation of the carboxylate functional groups", "setting": "[1]", "result": "roughly 50%"}
    ]},
    {"smiles": "CC(=O)C[C@@H](c1ccccc1)c1c(O)c2ccccc2oc1=O", "note": "[(S)-warfarin]", "values": [
      {"measurement": "fraction metabolized through P450 2C9 (fm2C9)", "setting": "P450 2C9 [5]", "result": 0.91}
    ]}
  ]
}
